What all share (format): cell-based
In one series the test system is HIV-1 IIIB. The series is described as follows: Anti-HIV-1 activity in MT-4 cells. Particulars: MT-4 cells; for SI IIIB (CC50/EC50): HIV-1 IIIB.
The test system of another series is HIV-2 ROD. The series is described as follows: Anti-HIV-2 activity in MT-4 cells. As to conditions: HIV-2 ROD; for SI ROD (CC50/EC50): MT-4 cells; for EC50: read-out: EC50 ROD, 50% protection of MT-4 cells against HIV-induced cytotoxicity.
The subject of another series is MT-4 cells. Description: Cytotoxicity in uninfected MT-4 cells.

The source of these data is publication PMC10790229 (Journal of medicinal chemistry, 2023).

With “(S)-2-(4-((4-Aminophenyl)sulfonyl)-2-oxopiperazin-1-yl)-N-(2-(3,5-difluorophenyl)-1-(3-(4-methoxyphenyl)-7-(methylsulfonyl)-4-oxo-3,4-dihydroquinazolin-2-yl)ethyl)acetamide [12e2]”, in the series on HIV-1 IIIB, the “SI IIIB (CC50/EC50)” value is reported as above 235.85 and the “Ratio IIIB(EC50)/ROD(EC50)” value is on record as 4.53. Also, in the series with HIV-2 ROD, the “SI ROD (CC50/EC50)” value is listed as above 1041.67 and the EC50 turned out to be 0.15 ± 0.03 µM. This compound also displayed a 50% cytotoxic concentration (CC50) with MT-4 cells above 160 µM.
The like results for `O=C(CN1CCN(S(=O)(=O)c2ccc([N+](=O)[O-])cc2)CC1=O)N[C@@H](Cc1ccccc1)c1nc2ccccc2c(=O)n1-c1ccc(S(=O)(=O)N2CCOCC2)cc1` [20a1, (S)-N-(1-(3-(4-(Morpholinosulfonyl)phenyl)-4-oxo-3,4-dihydroquinazolin-2-yl)-2-phenylethyl)-2-(4-((4-nitrophenyl)-sulfonyl)-2-oxopiperazin-1-yl)acetamide] were, in that order, above 126.26, 3.27, above 416.67, 0.37 ± 0.09 µM and above 153 µM.
The like results for “(S)-2-(4-((4-Aminophenyl)sulfonyl)-2-oxopiperazin-1-yl)-N-(1-(3-(4-(morpholinosulfonyl)phenyl)-4-oxo-3,4-dihydroquinazolin-2-yl)-2-phenylethyl)acetamide [21a1]” were, in that order, above 1041.67, 1.50, above 1562.50, 0.1 ± 0.01 µM and above 159 µM.
The matching figures for `COc1ccc(-n2c([C@H](Cc3ccccc3)NC(=O)CN3CCN(S(=O)(=O)c4ccc(N)cc4)CC3=O)nc3cc(F)ccc3c2=O)cc1` [12b1, (S)-2-(4-((4-Aminophenyl)sulfonyl)-2-oxopiperazin-1-yl)-N-(1-(7-fluoro-3-(4-methoxyphenyl)-4-oxo-3,4-dihydroquinazolin-2-yl)-2-phenylethyl)acetamide]: above 223.21, 5.47, above 1250.00, 0.15 ± 0.03 µM and above 183 µM.
`COc1ccc(-n2c([C@H](Cc3ccccc3)NC(=O)CN3CCN(S(=O)(=O)c4ccc([N+](=O)[O-])cc4)CC3=O)nc3cc(Br)ccc3c2=O)cc1` [11d1, (S)-N-(1-(7-Bromo-3-(4-methoxyphenyl)-4-oxo-3,4-dihydroquinazolin-2-yl)-2-phenylethyl)-2-(4-((4-nitrophenyl)sulfonyl)-2-oxopiperazin-1-yl)acetamide]: in the series with HIV-1 IIIB, the “SI IIIB (CC50/EC50)” value was above 67.20 and the “Ratio IIIB(EC50)/ROD(EC50)” value is 6.67. Further, in the series with HIV-2 ROD, the “SI ROD (CC50/EC50)” value is recorded as above 446.43 and the 50% effective concentration (EC50) worked out at 0.36 ± 0.03 µM. The compound also had a CC50 in the series with MT-4 cells above 161 µM.
The matching figures for `COc1ccc(-n2c([C@H](Cc3cc(F)cc(F)c3)NC(=O)CN3CCN(S(=O)(=O)c4ccc(N)cc4)CC3=O)nc3cc(F)ccc3c2=O)cc1` [12b2, (S)-2-(4-((4-Aminophenyl)sulfonyl)-2-oxopiperazin-1-yl)-N-(2-(3,5-difluorophenyl)-1-(7-fluoro-3-(4-methoxyphenyl)-4-oxo-3,4-dihydroquinazolin-2-yl)ethyl)acetamide]: above 568.18, 2.58, above 1488.10, 0.12 ± 0.03 µM and above 173 µM.
In the case of `COc1ccc(-n2c([C@H](Cc3ccccc3)NC(=O)CN3CCN(S(=O)(=O)c4ccc([N+](=O)[O-])cc4)CC3=O)nc3ccccc3c2=O)cc1` [11a1, (S)-N-(1-(3-(4-Methoxyphenyl)-4-oxo-3,4-dihydroquinazolin-2-yl)-2-phenylethyl)-2-(4-((4-nitrophenyl)sulfonyl)-2-oxopiperazin-1-yl)acetamide], the “SI IIIB (CC50/EC50)” value with HIV-1 IIIB is above 119.05. In the series with HIV-2 ROD, the “SI ROD (CC50/EC50)” value was above 312.50.
